The structures appear in SMILES notation. Read-outs that look alike come from different tables or passages of the source. Where only a bound is given, the exact number is not on record here.

One data set has as its system activated MEK. The note with it: cited from earlier work; for type of inhibition, comparative kinetic analysis: activated MEK.
A further data set has as its system Swiss 3T3 cells. Particulars: PDGF-stimulated Swiss 3T3 cells; cited from earlier work.
A further data set concerns SMC (Smooth Muscle Cell). Particulars: at concentrations which inhibit ERK activation; cited from earlier work.
Another data set deals with T cells. Particulars: cited from earlier work.
The subject of data set [1] is ERK. Particulars: agonists fMLP, IL-8, C5a and LTB4; cited from earlier work.
The test system of data set [2] is neutrophils. The note with it: in response to all agents (fMLP, IL-8, C5a, LTB4); cited from earlier work.
Data set [3] has as its system neutrophils. Particulars: cited from earlier work.
For another data set, the system named is HL-60 cells. Particulars: cited from earlier work.
Data set [4] concerns neutrophils, mast cells, or endothelial cells. The note with it: opsonized zymosan, aggregation of high affinity IgG receptor, or thrombin, respectively; cited from earlier work.
The subject of data set [5] is Cox-2. Particulars: RAW 264.7 cells; cited from earlier work.
Data set [6] relates to Cox-2. Particulars: LPA-stimulated rat mesangial cells; cited from earlier work.
In another data set the test system is 5-lipoxygenase. Particulars: HL-60 cells; cited from earlier work.
In the next data set the test system is monocytes. The note with it: LPS treatment of monocytes; cited from earlier work.
The test system of data set [7] is RAS-transformed cells. Particulars: cited from earlier work.
The next data set relates to UM-SCC-1 and MDA-TV-138. Particulars: controlled by EGF, TGFa and FGF; cited from earlier work.
The next data set has as its system UM-SCC-1 cells. Particulars: cited from earlier work.
The test system of another data set is SMC. Particulars: serum starved SMC.
A further data set deals with keratinocyte. Particulars: pituitary growth factor extract, primarily FGF.
Data set [8] relates to ERK. Particulars: fMLP- and LTB4-stimulated.
Data set [9] relates to neutrophils. Particulars: U0126 at 10 mM; in response to IL-8 and LTB4.
For data set [10], the system named is neutrophils.
The test system of a further data set is b2 integrin. The note with it: U0126 at 10 mM.
The test system of a further data set is keratinocytes. Particulars: keratinocytes stimulated with a variety of agents.
Data set [11] relates to Cox-2.
The test system of data set [12] is freshly isolated human monocytes and THP-1 cells.
The subject of data set [13] is RAS-transformed cells.
Data set [14] relates to ERK. Particulars: PMA/ionomycin, Con A stimulation, antigen with costimulation; cited from earlier work.
The test system of a further data set is T cell. Particulars: in response to TCR engagement; cited from earlier work.
A further data set relates to MMP. The note with it: IL-1b and TNF-a, fibroblasts; cited from earlier work.

Consider `COc1cccc(-c2cc(=O)c3ccccc3o2)c1N` [PD 098059], for which, in the data set on activated MEK, the “type of inhibition, comparative kinetic analysis” value was “non-competitive inhibitors of activated MEK” and the MEK activity result is reported as “inhibits MEK activity”. Further, the “thymidine incorporation into DNA” value in the data set on Swiss 3T3 cells is given as “blocks thymidine incorporation into DNA”. Further, the “PDGF-BB-dependent SMC chemotaxis” value in the data set on SMC (Smooth Muscle Cell) is given as “prevents PDGF-BB-dependent SMC (Smooth Muscle Cell) chemotaxis”. Further, the IL-2 production result in the data set with T cells (anti-CD3 antibody with anti-CD28 or PMA) is given as “blocked IL-2 production”. Also, in the data set on T cells (anti-CD3 antibody, reversed by IL-2), the T cell proliferation result is recorded as “inhibit T cell proliferation”. Further, the “production of IL-4, IL-5 and IL-13” value with T cells (similarly stimulated T cell cultures) was “enhanced production”. In addition, in the data set on T cells (stimulated T cells), the “TNFa, IL-3 GM-CSF, IFN-g, IL-6 and IL-10 production” value is on record as “blocked”. Also, the “ERK activation in neutrophils” value with ERK [1] is “blocked”. Besides, the neutrophil chemotaxis entry in the data set on neutrophils [2] is “blocks neutrophil chemotaxis”. In the data set with neutrophils [3], the superoxide anion production result is given as “does not alter superoxide anion production”. In addition, the fMLP-stimulated superoxide generation entry in the data set with HL-60 cells was “inhibited”. Besides, the arachidonic acid release result in data set [4] is “blocks arachidonic acid release”. The “LPS-induced Cox-2 expression” value in the data set with Cox-2 [5] was “partially blocked”. In the data set on Cox-2 [6], the Cox-2 induction entry is recorded as “inhibits Cox-2 induction”. Besides, in the data set with 5-lipoxygenase, the “5-lipoxygenase translocation from cytosol to nuclear membrane and activation (5-HETE production)” value is recorded as “inhibited”. In the data set with monocytes, the cytokine production result is “blocked”. Further, the “cell growth under normal culture conditions” value with RAS-transformed cells [7] (normal culture conditions) is “minimal effects on cell growth”. Besides, the “growth of RAS-transformed cells in soft agar” value in the data set on RAS-transformed cells [7] (soft agar) was “impede the growth”. In addition, the urokinase secretion entry in the data set on UM-SCC-1 and MDA-TV-138 was “reduce urokinase secretion”. Also, in the data set with UM-SCC-1 cells, the cellular proliferation rate entry is on record as “not affected” and the “in vitro invasiveness through an extracellular matrix-coated porous filter” value is reported as “blocked”.

Consider `N#CC(=C(/N)Sc1ccccc1N)/C(C#N)=C(\N)Sc1ccccc1N` [Example U0126], for which the PDGF-dependent growth entry in the data set on SMC is listed as “prevents PDGF-dependent growth”. The keratinocyte proliferation result in the data set with keratinocyte is given as “blocks keratinocyte proliferation”. In addition, the “ERK activation in neutrophils” value in the data set with ERK [8] is recorded as “blocks ERK activation”. Also, the “type of inhibition, comparative kinetic analysis” value in the data set on activated MEK is “non-competitive inhibitors of activated MEK”. In addition, in the data set with neutrophils [9], the “block of chemotaxis through a fibrin gel” value is above 80%. For the same molecule, in the data set on neutrophils [10], the NADPH-oxidase activity entry is on record as “does not impair NADPH-oxidase activity” and the bacterial cell killing result is “does not impair”. Besides, in the data set with b2 integrin, the “blunting of up regulation of b2 integrin on the cell surface” value was determined as 50%. In addition, in the data set with keratinocytes, the arachidonic acid release entry is listed as “block arachidonic acid release”; the “prostaglandin and leukotriene synthesis” value is reported as “block”. For the same molecule, the Cox-2 induction entry in the data set on Cox-2 [11] (TPA-stimulated fibroblasts) was “inhibits Cox-2 induction”. Also, the “serum induction of the Cox-2 transcript” value in the data set with Cox-2 [11] (fibroblasts, serum) was “does not impede serum induction of the Cox-2 transcript”. Further, the LPS-induced cytokine production entry in [12] is “inhibitable”. Also, the “cell growth under normal culture conditions” value in the data set on RAS-transformed cells [13] (normal culture conditions) is “minimal effects on cell growth”. Besides, in the data set on RAS-transformed cells [13] (soft agar), the “growth of RAS-transformed cells in soft agar” value is “impede the growth”. The “growth of human tumor cell lines in soft agar” value with human tumor cell lines is listed as “can prevent cell growth in some cells, but not all”. In the data set on ERK [14], the “ERK activation in T cells” value is reported as “prevents ERK activation”. Moreover, in the data set with T cell, the IL-2 synthesis result was “blocked”; the “T cell activation and proliferation” value is given as “blocked”. For the same molecule, the MMP induction result in the data set on MMP is “block MMP induction”.

Consider `N#CC(=C(N)Sc1ccc(N)cc1)c1cccc(C(O)c2ccncc2)c1` (centres unmarked), for which the melting point was 146.5 to 147.5 °C.

The molecule `Cc1ccccc1C(C(C#N)=C(N)Sc1ccccc1N)c1ccc(Cl)cc1` (centres unmarked) returned a melting point of 63.5 to 72 °C.
